According to a melting point compilation (Tetko et al.; mined from patent text by program, amines drawn as free bases though some values may be those of a salt):

Row | melting point | Compound
1 | 185 to 187 °C | COc1cn(-c2ccc(-c3cnn(C(F)F)c3)cc2F)nc(-c2ccnn2-c2ccccc2)c1=O
2 | 117 to 118 °C | COC(=O)NCc1ccc2ccn(C3CCN(CCc4ccc(F)cc4)CC3)c2c1
3 | 84 to 86 °C | CCOc1nc(OCC)c2cscc2n1
4 | 57 to 60 °C | O=C(O)[C@H](Cc1c[nH]c2ccccc12)NS(=O)(=O)c1ccc(F)cc1
5 | 82 to 83 °C | CC(C)C[C@@H](NC(=O)OC(C)(C)C)C(=O)N[C@H](C(=O)OCc1ccccc1)C(C)C
6 | 111 to 112 °C | ClCC(CCl)(CCl)c1cc(Cl)nnc1Cl
7 | 190 to 192 °C | O=C(O)COc1ccc(C2=CC(=O)CC(c3ccc(F)cc3)C2)c(Cl)c1Cl (stereo unspecified)
8 | 114 to 116 °C | O=C1c2ccccc2C(=O)N1[C@@H]1C=CC[C@H]1O (relative stereo)
9 | 110 °C | CCOC(=O)CS(=O)CCSc1cc(C(C)(C)C)c(O)c(C(C)(C)C)c1 (stereo unspecified)
10 | 90 °C | CN1CCC(NC(c2cccc(C(F)(F)F)c2)c2nc3ccccc3[nH]2)CC1 (stereo unspecified)
11 | 132 to 135 °C | C#CCC(=C1NCCCS1)[N+](=O)[O-]
12 | 228 to 229 °C | Cc1ccc(-c2ccc3c(c2)C=C(C(=O)Nc2ccc(-c4ccccn4)cc2)CCO3)cc1
13 | 224 to 225 °C | O=[N+]([O-])c1cc(-c2cccc3ccccc23)c2nc(Cl)ccc2c1
14 | 178 to 181 °C | CCOC(=O)COc1ccc2cc(-c3cc4ccccc4s3)ccc2c1Br
15 | 95 to 101 °C | CC(C)(C)OC(=O)CN(C(=O)OC(C)(C)C)[C@H](CC1CCCCC1)C(=O)N1CCC[C@H]1C(=O)NC1CCc2nc(N)sc2C1 (stereo partly specified)
16 | 270 to 272 °C | CC(=O)Oc1cc(O)c(Cl)cn1
17 | 147 to 151 °C | Cc1cn(CCCN2C(=O)c3ccc(Cl)c(Cl)c3C2=O)cn1
18 | 97 to 98 °C | C#CCN(C)c1nccc(Oc2ccc(NC(=O)c3cc(F)cc(N4CCOCC4)c3)c3ccccc23)n1
19 | 84 to 90 °C | Cc1cc2c(c(C(C)(C)C)c1)OC(=O)C2c1ccc2c(c1)c1ccccc1n2C (stereo unspecified)
20 | 214 to 216 °C | O=C(CN1C(=O)c2ccccc2C1=O)c1cc(O)c(O)c([N+](=O)[O-])c1
21 | 231 to 233 °C | COc1cc2ncc(C#N)c(Nc3cccnc3)c2cc1OC
22 | 88 to 110 °C | Nc1cccc(-c2ccc(OCC3CNC3)c3ccccc23)n1
23 | 140 to 142 °C | CC=NN(C(=O)c1ccc(Cl)cc1)c1ccc2c(c1)OCO2

Row | melting point | Compound
24 | 153 °C | CS(=O)(=O)C(=C1CN(C(c2ccccc2)c2ccccc2)C1)c1cccc(N2CCCC2)c1
25 | 185 °C | O=C(O)[C@@H]1CN(C(=O)OCc2ccccc2)CCN1C(=O)N1c2ccccc2CCc2ccccc21
26 | 91 °C | CCC(Oc1cccc(C(F)(F)F)n1)C(=O)O (stereo unspecified)
27 | 170 to 172 °C | Brc1ccn2nc(N3CCCC3)nc2c1
28 | 74 to 75 °C | COC(=O)CSc1cc(C)ccc1[N+](=O)[O-]
29 | 72 to 73 °C | CC(=NO)C(C)(C)NCCCNC(C)(C)C(COCC(O)Cn1ccnc1[N+](=O)[O-])=NO (stereo unspecified)
30 | 79 °C | COC(=O)CS(=O)C(C)c1ccc(-c2ccccc2F)cc1 (stereo unspecified)
31 | 105 to 107 °C | O=C(NCC1CC1)c1cccnc1Oc1cncc(Cl)c1
32 | 274 to 276 °C | O=C1CCC(=O)N1Cc1nc2sc3c(c2c(-c2ccc(O)cc2)c1Cl)CCS(=O)C3 (stereo unspecified)
33 | 114 °C | CC(C)C(O)(c1ccccc1)c1cc(Cl)ccc1O (stereo unspecified)
34 | 133 to 134 °C | COc1ccc(OC(=O)N2CCCC2=O)cc1
35 | 213 to 215 °C | COc1cc(OC)c(-c2ccc(C)s2)cc1C=CC(=O)c1ccc(C(=O)O)cc1
36 | 319 to 320 °C | O=C(NCc1ccc(Cl)cc1)c1cnc2ccc(O)cc2c1O
37 | 99 to 100 °C | CCOC(=O)c1cn(-c2ccc(C(F)(F)F)cn2)nc1C1CCCCC1
38 | 100 to 102 °C | CC(=O)c1ccc(C2CCCC2)cc1
39 | 168 to 169 °C | CN(c1cccc2cc(C3=NCC(CCO)S3)[nH]c12)S(=O)(=O)c1cccs1 (stereo unspecified)
40 | 136 to 138 °C | CCN(CC)C(=S)SCC(c1cccc2ccccc12)[N+](=O)[O-] (stereo unspecified)
41 | 213 to 215 °C | CCNC(=O)c1ccc(CN2CCN(c3ccncc3)CC2)cc1
42 | 110 to 112 °C | O=C(CNC(=O)OCc1ccccc1)ON1C(=O)CCC1=O
43 | 91 to 94 °C | CCOC(=O)C=C(C)c1ccc(-c2ccc(Cl)cc2)cc1
44 | 97 to 98 °C | COC(=O)C[C@H](CCC(=O)OCc1ccccc1)NC(=O)OC(C)(C)C
45 | 76 to 78 °C | CCCc1c(OCCCCC(=O)NCCCCc2cccnc2)ccc(C(C)=O)c1O
46 | 101 to 102 °C | CCCCCCCCCCCCCCCCCc1cc(O)c(CC)c(=O)o1

Row | melting point | Compound
47 | 228 to 230 °C | CC(Cn1cnnn1)n1nnc2cc3c(=O)n(C)nnc3cc2c1=O (stereo unspecified)
48 | 62 to 63 °C | COc1ccc(OC)c2c1ccn2Cc1ccc(Cl)cc1
49 | 128 to 131 °C | Cc1cncn1Cc1cc(C(C)(C)O)cc(C(C)(C)C#N)c1
50 | 216 to 218 °C | COc1ccc(C(=O)c2ccc(=O)[nH]c2C=CN(C)C)cc1
51 | 264 °C | CC1(C)OC(=C(C#N)C#N)C(C#N)=C1c1ccc(C2CCCCCN2)s1 (stereo unspecified)
52 | 240 to 242 °C | O=C1Nc2ccccc2N(C(=O)CN2CCOCC2)c2ncncc21
53 | 125 to 128 °C | Nc1nc2c(s1)CC(NC(=O)[C@@H]1CCCN1C(=O)CNC(c1ccccc1)(c1ccccc1)c1ccccc1)CC2 (stereo partly specified)
54 | 150 to 151 °C | CC(=O)CC(=O)N1CCc2cc(C(O)(C(F)(F)F)C(F)(F)F)ccc21
55 | 87 to 89 °C | CN(Cc1ccccc1)C(=O)Cn1c(-c2ccc(Cl)cc2)nc2cccnc21
56 | 116 to 122 °C | NNc1ccc(Cl)cn1
57 | 175 to 176 °C | O=C(c1ccc(C2CCCCC2)cc1)N1Cc2ccccc2Nc2ccccc21
58 | 151 °C | O=S(=O)(c1ccccc1)C(CC(F)(F)F)c1ccc(C(O)(C(F)(F)F)C(F)(F)F)cc1 (stereo unspecified)
59 | 154 to 172 °C | O=C(O)[C@@H]1C[C@H](OS(=O)(=O)C2CCCCC2)CN1C(=O)c1ccccc1
60 | 198 to 204 °C | CCN1C(=O)N(c2cc(OC)cc(OC)c2F)Cc2cnc(NC3CCC(O)CC3)nc21 (stereo unspecified)
61 | 199 to 201 °C | CC(=O)Nc1cccc2c(=O)n(C)c3ccccc3c(=O)c12
62 | 109 to 111 °C | Cn1c(C(F)(F)F)cc(=O)n(-c2ccc3snc(CN(C(=O)OC(C)(C)C)S(C)(=O)=O)c3c2)c1=O
63 | 229 to 230 °C | Cc1nnc(-c2ccc3occ(-c4ccc(S(=O)(=O)C(C)C)cc4)c3c2)o1
64 | 248 to 251 °C | Cc1oc(-c2ccc(Cl)cc2)cc1C(=O)Nc1cc(Cl)ccc1-c1noc(=O)[nH]1
65 | 91 °C | Oc1ccc2ccc(F)c(F)c2c1F
66 | 136 to 138 °C | C=Cc1cc(CNC(=O)C(C)=Cc2ccc(C(C)(C)C)cc2)cc(F)c1NS(C)(=O)=O
67 | 226 to 229 °C | CC(C)(C)OC(=O)Cc1n[nH]c2c(=O)[nH]c3cc(Cl)ccc3c(=O)c12
68 | 116 to 117 °C | COc1ccc(C2CCC(=O)N(CCN(C)C)c3ccccc3C2=O)cc1 (stereo unspecified)

Row | Compound | melting point
69 | Cc1ccc(C2=CCNCC2)nc1 | 78 to 80 °C
70 | Clc1ccc2c(c1)NCc1ccccc1S2 | 125 to 127 °C
71 | CCOC(=O)c1c(C#N)nn(-c2c(Cl)cc(C(F)(F)F)cc2Cl)c1N | 202 °C
